Results on 2 compounds are retold here after patent publication US20250177392A1, “BROAD SPECTRUM INHIBITORS OF CYTOMEGALOVIRUS” (MICROBIOTIX, INC., priority 2022, published 2025).

Assay type in all cases: cell-based, Human cytomegalovirus
The subject of assay [1] is AD169^R CMV virus. Briefly: Plaque reduction (dissemination) assay, prophylactic treatment. The procedure: (§1) FIG. 8A-H are fluorescence images (A & B) and graphs showing that NAPA compounds MBX-4992 and MBXC-4336 work in both prophylactic and therapeutic settings to inhibit HCMV infection. ARPE-19 cells (A to D) and NHDF cells (E and F) treated with increasing concentrations (0, 1, 5, 20, and 50 μM) of MBX-4992, MBXC-4336, or ganciclovir (2.5 μM) were infected with AD169^R (MOI 0.025) and analyzed for viral plaques of >5,000 μm^2 (C and E) and >10,000 μm^2 (D and F) based on GFP fluorescence. The representative images of plaques from AD169^R-infected ARPE-19 cells treated MBX-4992, MBXC-4336, ganciclovir are shown (A and B). MBX-4992, MBXC-4336 (G and H), and ganciclovir treatment at 48 hpi of AD169^R-infected ARPE-19 cells (MOI 0.025) were analyzed for virus plaques >5,000 μm^2 and >10,000 μm^2 at 10 dpi. The normalized plaque number was designated to be 100 based on plaques from DMSO treated cells. Statistical tests were performed using ordinary one-way ANOVA with multiple comparisons to DMSO treated cells as a control and a Dunnett's post-test; *, p<0.05; **, p<0.01; ***, p<0.001; ****, p<0.0001.
For the prophylactic treatment analysis, the plaque assay was performed on ARPE-19 and NHDF cells (4×10^4) in a 24-well plate. The cells were pretreated for 1 hour with either MBX-4992 or MBXC-4336 (1-50 μM), DMSO, or ganciclovir (2.5 μM) and followed by virus infection with AD169^R. Following a 2-hour incubation at 37° C., the inoculum was removed and cells were overlaid with 1% low melt sea agarose. Upon solidification of the agarose, MBX-4992, MBXC-4336, DMSO, or ganciclovir in media was added at the indicated concentration. The drugs were replaced every 3 days. The cells were examined using Brightfield and GFP fluorescence to quantify the number and size of virus plaques using a Celigo Cytometer at 10 dpi.
To address whether NAPA compounds can limit virus dissemination in epithelial cells, we analyzed the inhibitory properties of MBX-4992 and MBXC-4336 using a plaque reduction assay by designating a cluster of virus infected cells as a virus plaque (Parsons et al., Antivir. Res., 193:105124 (2021)) The results are shown in FIG. 8A-H.
To evaluate the prophylactic function of the NAPA compounds, ARPE-19 cells and NHDF cells treated with DMSO, MBX-4992, MBXC-4336 (0-50 μM), or ganciclovir (2.5 μM) were infected with AD169^R CMV virus and analyzed for virus plaques at 10 dpi based on GFP fluorescence (FIG. 8A-F). A cluster of virus infected cells was designated a viral plaque based on an average cluster area of 5,000 μm^2 or 10,000 μm^2 (FIG. 8A-B) using a Celigo cytometer.

Assay [2] deals with AD169^R CMV virus. In words: Plaque reduction assay, therapeutic treatment at 48 hpi. The conditions noted are these: Human betaherpesvirus 5, AD169, ARPE-19, read-out: IC50 of plaque reduction (>5,000 μm^2 and >10,000 μm^2). The procedure:
as §1
For therapeutic treatment, ARPE-19 cells (4×10^4) were plated in a 24-well plate. […] The cells were examined using brightfield and YFP fluorescence to quantify the number and plaques using the Celigo Cytometer at 14. […]
In general terms: In a plaque reduction assay, fewer plaques than in the control indicate reduced infectivity or spread.

The next assay relates to AD169^R (IE1 expression). In words: Western blot (immunoblot) of IE1 expression in AD169^R-infected cells. As for the experimental part: The molecular weight markers and respective proteins are indicated.
FIGS. 12A and B are Western Blot assays showing that MBXC-4336 limits expression of IE1 in fibroblasts and epithelial cells. Total cell lysates from AD169^R-infected (MOI 0.2) NHDF (A) and ARPE-19 (B) cells pre-treated with DMSO, MBX-4336 (0, 1, 5, 10, or 20 μM), or heparin (50 μg/mL) collected at 48 hpi were subjected to Western blot analysis using a rabbit anti-IE-1 antibody (lanes 1-7) and an anti-GAPDH antibody (lanes 8-14) as a loading control. The molecular weight markers and respective proteins are indicated.
Total cell lysates from virus infected NHDF cells treated with compounds were created through SDS-lysis (10^4/100 uL of 1% SDS) of at least three rounds of heating at 95° C. for 3 min and vigorous agitation. The total cell lysates were resolved using an SDS-polyacrylamide gel (12.5%), transferred to a PVDF membrane using a semi-dry apparatus. The membrane was then incubated with 1% BSA/PBS for 1 hr at room temperature followed by incubation with anti-IE1 and anti-GAPDH. Finally, the respective secondary antibody conjugated with HRP was incubated with membrane followed by detection using ECL reagents (Millipore).
Next, inhibition of the expression of IE1 in AD169^R-infected cells treated with MBX-4992 was examined by immunoblot analysis (FIG. 4E). […] Collectively, these findings further indicate that MBX-4992 effectively prevents the expression of the immediate-early genes during a CMV infection.

Where [3] appears, read: Human betaherpesvirus 5, AD169, ARPE-19, read-out: IC50 of virus plaque reduction.
The mark [4] stands for this setting: Human betaherpesvirus 5, AD169, Fibroblast, read-out: IC50 of virus plaque reduction.

Structures are written as SMILES.

`Cc1nc(Nc2ccc(NC(=O)c3ccco3)cc2)cc(N2CCCC2)n1` [MBX-4992]: the values for the IC50 in the assay on AD169^R CMV virus [1] (setting [3]), in the assay with AD169^R CMV virus [1] (setting [4]) and in the assay on AD169^R CMV virus [2] were 6.5 µM, 12 µM and ~9 µM, respectively. In the assay on AD169^R (IE1 expression) (NHDF cells, 24 hpi, MBX-4992 1-10 μM, ganciclovir 5 μM, convallotoxin 0.01 μM), the “IE1 expression by immunoblot” value is reported as “concentration dependent decrease in IE1 expression”.
Turning to `Cc1nc(Nc2cccc(NC(=O)c3ccco3)c2)cc(N2CCCCC2)n1` [MBXC-4336], the figures for the IC50 with AD169^R CMV virus [1] (setting [3]), with AD169^R CMV virus [1] (setting [4]) and in the assay on AD169^R CMV virus [2] were 1.7 µM, 4 µM and ~9 µM, respectively. Further, the “IE1 expression by immunoblot” value in the assay with AD169^R (IE1 expression) (NHDF and ARPE-19 cells, 48 hpi (FIG. 12)) is “effectiveness of MBXC-4336 was validated”.

As a reminder, the IC50 is the midpoint of a concentration-inhibition curve.
